We go through 1 compound from US20240011041A1, “PHAGE COMPOSITIONS FOR P[…]-CAS SYSTEMS AND METHODS OF USE THEREOF” (priority 2020, published 2024).

Like-named read-outs stand apart in the source and are kept apart here.

The experiment relates to Pseudomonas aeruginosa isolates b1121, b2631, b3144. Put plainly: Tobramycin MIC of the challenge isolates. It is filed as cell-based. The following applies: read-out: TOB MIC.

By MIC is commonly meant the smallest concentration in the dilution series that meets the test's criterion for growth inhibition. In the case of `NC[C@H]1O[C@H](O[C@H]2[C@H](O)[C@@H](O[C@H]3O[C@H](CO)[C@@H](O)[C@H](N)[C@H]3O)[C@H](N)C[C@@H]2N)[C@H](N)C[C@@H]1O` [TOB, tobramycin], the minimal inhibitory concentration (MIC) (isolate b1121, Respiratory) was found to be 0.5 µg/mL; the minimum inhibitory concentration (MIC) (isolate b2631, CF isolate) worked out at 0.5 µg/mL; the minimum inhibitory concentration (MIC) (isolate b3144, CF isolate) was determined as 2 µg/mL.
